These results are taken from US9890403B2, “Method for producing single cell oil from lignocellulosic materials” (NESTE OYJ, priority 2013, dated 2018).

Test [1] has as its system Aspergillus. oryzae. Particulars: 5 days, 28 C. As to the method:
The experiments were done using a lipid producing fungal strain Aspergillus. oryzae. From the sporulating fungus grown on PDA-plates a spore suspension was made by adding 12 ml of sterile water and the spores were scraped off with inoculation loop to the liquid. The spore suspension was used for media inoculation.
All of them contained these basic nutrients, and small amount of fine cellulose to prevent the fungus from clumping.
The organic acids were added in so the concentration of the formic and acetic acid alone was 0, 1, 3, 5 and 7 g/l, and for the two acids together 0, 1, 3, 5, 7 and 9 g/l. After this the pH of the media was adjusted to 5.5-6.0 using 3 M NaOH. The medium was distributed to 50 ml batches into 250 ml erlenmayer flasks. The media was sterilized in autoclave 121 C 15 min. After cooling down, each flask was inoculated using 0.5 ml spore suspension mentioned earlier. For each concentration, parallel cultivations were made. The cultivations were incubated in 160 rpm shaking at 28 C 5 days. The growth was observed daily with a microscope, and in the end of the cultivation the biomass and lipid contents were determined.
The biomass content was determined by vacuum filtering the whole content of the flask and washing the biomass with 50 ml of distilled water. After this the biomass cakes were frozen and dried overnight in freeze dryer. From the dries biomass the lipid content was analyzed according to Suutari et al. (1990). The lipids in the samples were first hydrolysed into free fatty acids, which were saponified into sodium salts thereof and thereafter methylated into methyl esters. The fatty methyl esters were analysed gas chromatographically.

Test [2] concerns Lipomyces starkeyi TKK-1. Briefly: Effect of furfural on microbial growth, flask cultivation (Example 7). It is filed as cell-based. The note with it: for DW (dry weight concentration): after 6 days of cultivation. As to the method: (§1) Two fungal strains Aspergillus oryzae TKK-4 and Mortierella isabellina TKK-1 and one yeast strain Lipomyces starkeyi TKK-1 were cultivated in flasks in a standard medium (Table 12) with furfural addition. The microorganisms were grown for 6 days in 28° C. with 160 rpm (for fungi) and 250 rpm (for yeast). Cellulose was added to help the fungus grow with a better morphology. Furfural was added in different amounts into the medium (0-4 g/l) and the growth of the microorganisms was observed.

Test [3] has as its system Aspergillus oryzae TKK-4. The test is described as above. The format is cell-based. The note with it: for DW (dry weight concentration): after 6 days of cultivation. As to the method: as §1
Test [4] relates to Mortierella isabellina TKK-1. The test is described as above. It is filed as cell-based. The note with it: for DW (dry weight concentration): after 6 days of cultivation. As for the experimental part: as §1

Like-named read-outs stand apart in the source and are kept apart here.

As for `CC(=O)O` [Acetic acid, acetic acid], the Biomass concentration was determined as 12.4 g/L in test [1] (acid concentration 1 g/l), 11.4 g/L in test [1] (acid concentration 3 g/l), 11.1 g/L in test [1] (acid concentration 5 g/l) and 11.5 g/L in test [1] (acid concentration 7 g/l). The Lipid content is 19.8 % from cell dry weight in test [1] (acid concentration 1 g/l), 20.7 % from cell dry weight in test [1] (acid concentration 3 g/l), 21.2 % from cell dry weight in test [1] (acid concentration 5 g/l) and 24.3 % from cell dry weight in test [1] (acid concentration 7 g/l).

As to `O=Cc1ccco1` [Furfural], the “Inhibiting concentration of furfural” value in test [2] is at least 1.8 g/L. The “Furfural concentration in which the microbe grew” value in test [2] (after a few days) was 1.2 g/L; in test [3] (after one week) it was 0.5 g/L. Further, the “DW (dry weight concentration)” value in test [2] (furfural 0.6 g/l) was found to be 14.79 g/L; in test [2] (furfural 1.2 g/l), 14.39 g/L; in test [3] (furfural 0.1 g/l), 18.18 g/L; in test [3] (furfural 0.2 g/l) it was 16.54 g/L; in test [3] (furfural 0.3 g/l), 13.53 g/L; in test [3] (furfural 0.4 g/l), 11.58 g/L. Further, the “DW (dry weight concentration)” value worked out at 7.02 g/L in test [4] (furfural 0.2 g/l), 13.80 g/L in test [4] (furfural 0.4 g/l), 14.96 g/L in test [4] (furfural 0.6 g/l) and 9.28 g/L in test [4] (furfural 0.8 g/l). Besides, the “Furfural concentration that inhibited the growth completely” value in test [3] (after one week) is at least 0.75 g/L. For the same compound, the “Furfural concentration in which the microbe did not grow” value in test [4] is at least 1 g/L. The “Furfural concentration in which some growth was observed” value in test [4] (after 4-6 days) was determined as 0.8 g/L.

For `O=CO` [Formic acid, formic acid], the Biomass concentration in test [1] (acid concentration 1 g/l) stood at 12.5 g/L; in test [1] (acid concentration 3 g/l) it was 12.0 g/L; in test [1] (acid concentration 5 g/l), 11.2 g/L; in test [1] (acid concentration 7 g/l) it was 10.9 g/L. Besides, the Lipid content is listed as 19.5 % from cell dry weight in test [1] (acid concentration 1 g/l), 19.5 % from cell dry weight in test [1] (acid concentration 3 g/l), 15.9 % from cell dry weight in test [1] (acid concentration 5 g/l) and 19.8 % from cell dry weight in test [1] (acid concentration 7 g/l).
